According to PubChem BioAssay (NCI):
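Values below derive from 48-hour exposures of cells grown in 96-well plates, with endpoints linearly interpolated between the two concentrations bracketing the appropriate inhibition level. GI50 = concentration required for 50% inhibition of growth. The concentration for full growth arrest is given as TGI.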

Assays:
Test in all cases: NCI-60 cell line screen, 48 h
[1] = test system: SF-295 CNS
[2] = test system: MCF7 breast
[3] = test system: PC-3 prostate
[4] = test system: 786-0 renal
[5] = test system: RPMI-8226 leukemia
[6] = test system: LOX IMVI melanoma
[7] = test system: DU-145 prostate
[8] = test system: ACHN renal
[9] = test system: SW-620 colon
[10] = test system: SK-MEL-28 melanoma

CSc1ncc2c(n1)-c1ccccc1OC2N1CCOCC1 (stereo not given) showed a TGI [1] greater than 100 µM, a TGI [2] greater than 100 µM and a TGI [3] greater than 100 µM. The TGI [4] was greater than 100 µM, the TGI [5] was greater than 100 µM and the TGI [6] was greater than 100 µM. It also gave a TGI [7] greater than 100 µM, a TGI [8] greater than 100 µM and a TGI [9] greater than 100 µM.
Compound CCN1c2ccccc2NC(=S)c2c1n[nH]c2-c1ccccc1 has a TGI [1] of 59.3 µM, a TGI [2] of 74.9 µM and a TGI [3] of 84.6 µM. It also gave a TGI [5] of 43.9 µM, a TGI [6] greater than 100 µM and a TGI [7] greater than 100 µM. For the same compound, the TGI [10] was greater than 100 µM, the TGI [8] was greater than 100 µM and the TGI [9] was 84.7 µM.
Fc1ccc(-c2sc(-c3ccsc3)cc2Cc2ccsc2)cc1 gave a TGI [1] greater than 10 µM, a TGI [2] greater than 10 µM and a TGI [3] greater than 10 µM. It also gave a TGI [4] greater than 10 µM, a TGI [5] greater than 10 µM and a TGI [6] greater than 10 µM. The TGI [7] was greater than 10 µM, the TGI [10] was greater than 10 µM and the TGI [9] was greater than 10 µM.
CC(=O)OCC1OC(n2cnc3nc(Br)[nH]c(=O)c32)C(OC(C)=O)C1OC(C)=O (stereo not given) gave a TGI [1] greater than 100 µM, a TGI [2] greater than 100 µM and a TGI [3] greater than 100 µM. For the same compound, the TGI [4] was greater than 100 µM, the TGI [5] was greater than 100 µM and the TGI [6] was greater than 100 µM. The TGI [7] was greater than 100 µM, the TGI [8] was greater than 100 µM and the TGI [9] was greater than 100 µM.
Cc1c(Cc2ccccc2)n(C(C)OCCN(OC(=O)Oc2ccccc2)C(=O)Oc2ccccc2)c(=O)[nH]c1=O (stereo not given) showed a TGI [1] of 30.8 µM, a TGI [2] of 63.8 µM and a TGI [3] of 58.9 µM. It also gave a TGI [4] of 34.3 µM, a TGI [5] of 79.6 µM and a TGI [7] of 85.1 µM. It also gave a TGI [10] of 42 µM, a TGI [8] of 57.3 µM and a TGI [9] of 41.7 µM.
With CC(=O)C1=C(C)O[C@@H]2O[C@H](COCc3ccccc3)[C@@H](OCc3ccccc3)[C@H](O)[C@@H]2S1 the TGI [1] was 31.3 µM, the TGI [3] was 77.3 µM and the TGI [4] was 60.6 µM. The TGI [5] was 42.6 µM, the TGI [6] was 38.9 µM and the TGI [7] was 58.9 µM. It also gave a TGI [10] of 64 µM, a TGI [8] of 52.5 µM and a TGI [9] of 75.5 µM.
Work on COc1cc(C2S/C(=C/c3ccccc3)C(=O)N2Cc2ccccc2)cc(OC)c1OC (stereo not given) yielded a TGI [1] greater than 100 µM, a TGI [2] greater than 100 µM and a TGI [3] greater than 100 µM. The TGI [4] was greater than 100 µM, the TGI [5] was greater than 100 µM and the TGI [6] was greater than 100 µM. The TGI [7] was greater than 100 µM, the TGI [10] was greater than 100 µM and the TGI [8] was greater than 100 µM.
O=C(NC(=S)Nc1ccc([N+](=O)[O-])cc1)c1ccc2c(c1)Sc1ccccc1O2 showed a TGI [1] greater than 100 µM, a TGI [2] greater than 100 µM and a TGI [3] greater than 100 µM. The TGI [4] was greater than 100 µM, the TGI [6] was greater than 100 µM and the TGI [7] was greater than 100 µM. It also gave a TGI [10] greater than 100 µM, a TGI [8] greater than 100 µM and a TGI [9] greater than 100 µM.
O=P(O)(O)c1ccc(-c2ccc(I)cc2)cc1 gave a TGI [2] greater than 100 µM, a TGI [3] greater than 100 µM and a TGI [4] greater than 100 µM. It also gave a TGI [5] greater than 100 µM, a TGI [6] greater than 100 µM and a TGI [7] greater than 100 µM. The TGI [10] was greater than 100 µM, the TGI [8] was greater than 100 µM and the TGI [9] was greater than 100 µM.
Work on CC[C@@]1(O)C[C@H](OC2CC(N(C)C)C(O)C(C)O2)c2c(cc3c(c2O)C(=O)c2c(O)ccc(O)c2C3=O)[C@H]1C(=O)OC (stereo not given in full) yielded a TGI [1] of 0.389 µM, a TGI [2] of 0.996 µM and a TGI [5] of 0.388 µM. The TGI [6] was 0.772 µM, the TGI [10] was 0.462 µM and the TGI [9] was 0.662 µM.
With Cc1cc2c(c(C(=O)NCC(=O)N[C@@H](C)C(=O)OCc3ccccc3)c1)Oc1c(cc(C)cc1C(=O)NCC(=O)N[C@@H](C)C(=O)OCc1ccccc1)S2 the TGI [1] was greater than 100 µM, the TGI [2] was greater than 100 µM and the TGI [3] was greater than 100 µM. It also gave a TGI [4] greater than 100 µM, a TGI [5] greater than 100 µM and a TGI [7] greater than 100 µM. It also gave a TGI [8] greater than 100 µM and a TGI [9] greater than 100 µM.
Work on COc1ccc2c(c1)N(Cc1ccc(Cl)cc1)CCC2N1CCCC1=O (stereo not given) yielded a GI50 [1] of 1.67 µM, a TGI [1] of 5.08 µM and a GI50 [2] of 3.5 µM. It also gave a TGI [2] of 25.5 µM, a GI50 [3] of 3 µM and a TGI [3] of 38.7 µM. It also gave a GI50 [5] of 1.46 µM, a TGI [5] of 12.8 µM and a GI50 [6] of 3.54 µM. The TGI [6] was greater than 100 µM, the GI50 [7] was 2.66 µM and the TGI [7] was greater than 100 µM. For the same compound, the GI50 [10] was 8.28 µM, the TGI [10] was 45.6 µM and the GI50 [8] was 4.85 µM. For the same compound, the TGI [8] was 88.2 µM, the GI50 [9] was 6.48 µM and the TGI [9] was greater than 100 µM.
Compound CN1CCN(C(=O)CCC(=O)Nc2cc3c(c4ccccc24)-c2ccc4ccccc4c2C3)CC1 has a TGI [1] of 3.4 µM, a TGI [2] of 3.03 µM and a TGI [3] of 3.37 µM. The TGI [4] was 3.13 µM, the TGI [6] was 4.04 µM and the TGI [7] was 3.52 µM. The TGI [10] was 3.26 µM and the TGI [8] was 3.78 µM.
With COC1OCC(O)C(NC(=O)N(C)N=O)C1O (stereo not given) the TGI [1] was greater than 100 µM, the TGI [2] was greater than 100 µM and the TGI [5] was greater than 100 µM. The TGI [6] was greater than 100 µM, the TGI [10] was greater than 100 µM and the TGI [9] was greater than 100 µM.
For CCCCCCSc1nc(N)nc2nc[nH]c12, the TGI [1] was greater than 100 µM, the TGI [2] was greater than 100 µM and the TGI [5] was greater than 100 µM. It also gave a TGI [6] greater than 100 µM, a TGI [10] greater than 100 µM and a TGI [9] greater than 100 µM.
In the case of CN(C)CCNC(=O)c1cccc2ccc(-c3ccc(Br)cc3)nc12, the TGI [1] is reported as 14.8 µM, the TGI [2] is reported as 13.8 µM and the TGI [5] is reported as 5.93 µM. For the same compound, the TGI [6] was 4.82 µM, the TGI [10] was 13.2 µM and the TGI [9] was 5.9 µM.
Work on CC(=O)C(=O)NC1/C=C(C)\C=C/C(O)C/C=C(C)\C=C/C(O)CC2OC(=O)C1(C)C(=O)C2C (stereo not given) yielded a TGI [1] greater than 100 µM, a TGI [2] greater than 100 µM and a TGI [5] of 98.9 µM. The TGI [6] was greater than 100 µM, the TGI [10] was greater than 100 µM and the TGI [9] was greater than 100 µM.
CC(C)=CC1C(C(=O)Oc2ccccc2C(C)C)C1(C)C (stereo not given) showed a TGI [1] of 33.8 µM, a TGI [2] of 38 µM and a TGI [4] of 42.5 µM. For the same compound, the TGI [5] was 48.2 µM, the TGI [6] was 33.4 µM and the TGI [7] was greater than 100 µM. The TGI [10] was greater than 100 µM, the TGI [8] was 33 µM and the TGI [9] was 66 µM.
COC1/C=C/C=C(/C)Cc2cc(O)c(Cl)c(c2)N(C)C(=O)CC(OC(=O)C(C)C)C2(C)OC2C(C)C2CC1(O)NC(=O)O2 (stereo not given) was tested, and the TGI [1] was greater than 100 µM, the TGI [2] was greater than 100 µM and the TGI [3] was greater than 100 µM. For the same compound, the TGI [5] was greater than 100 µM, the TGI [6] was greater than 100 µM and the TGI [8] was greater than 100 µM. For the same compound, the TGI [9] was greater than 100 µM.
Clc1cc(-c2ccccc2)nc(Nc2nc3ccccc3[nH]2)n1 was tested, and the TGI [1] was greater than 100 µM, the TGI [3] was greater than 100 µM and the TGI [4] was 34.2 µM. For the same compound, the TGI [5] was greater than 100 µM, the TGI [7] was greater than 100 µM and the TGI [8] was 33.3 µM. The TGI [9] was 22.2 µM.
CN(C)CN1CSC(=S)N(CN(C)C)C1 showed a TGI [1] greater than 100 µM, a TGI [3] of 42.7 µM and a TGI [4] greater than 100 µM. The TGI [6] was greater than 100 µM, the TGI [7] was greater than 100 µM and the TGI [10] was greater than 100 µM. It also gave a TGI [8] greater than 100 µM and a TGI [9] greater than 100 µM.
Work on CSc1cc(Cl)c(C)cc1S(=O)(=O)NC(=O)NNc1ccc(F)cc1 yielded a TGI [1] greater than 100 µM, a TGI [2] greater than 100 µM and a TGI [3] greater than 100 µM. For the same compound, the TGI [4] was greater than 100 µM, the TGI [6] was greater than 100 µM and the TGI [7] was greater than 100 µM. It also gave a TGI [10] greater than 100 µM, a TGI [8] greater than 100 µM and a TGI [9] greater than 100 µM.
Work on CCOC(=O)c1nc2ccc(OC)cc2c2c1Cc1ccccc1-2 yielded a TGI [1] greater than 100 µM, a TGI [5] greater than 100 µM and a TGI [6] greater than 100 µM. It also gave a TGI [10] greater than 100 µM, a TGI [8] greater than 100 µM and a TGI [9] greater than 100 µM.
Work on COc1ccc(-n2c(SC(CN3CCOCC3)CN3CCCC3=O)nc3ccccc3c2=O)cc1 (stereo not given) yielded a TGI [1] greater than 100 µM, a TGI [2] greater than 100 µM and a TGI [3] greater than 100 µM. The TGI [4] was greater than 100 µM, the TGI [5] was greater than 100 µM and the TGI [7] was greater than 100 µM. For the same compound, the TGI [10] was greater than 100 µM, the TGI [8] was greater than 100 µM and the TGI [9] was greater than 100 µM.
